Experimental data taken from ChEMBL document CHEMBL3862012, “Methylene versus carbonyl bridge in the structure of new tubulin polymerization inhibitors with tricyclic A-rings” (Bioorg Med Chem, 2016).

Tests used:
[1] = Cytotoxicity against human NCI-H522 cells assessed as growth inhibition after 48 hrs by SRB assay; format: functional; settings: NCI-H522, 48 h
[2] = Cytotoxicity against human NCI-ADR-RES cells assessed as growth inhibition after 48 hrs by SRB assay; format: functional
[3] = Cytotoxicity against human SF295 cells assessed as growth inhibition at 10 uM after 48 hrs by SRB assay relative to control; format: functional; settings: SF-295, 48 h, read-out: GI
[4] = Cytotoxicity against human Hs 578T cells assessed as growth inhibition at 10 uM after 48 hrs by SRB assay relative to control; format: functional; settings: read-out: GI
[5] = Cytotoxicity against human SK-MEL-5 cells assessed as growth inhibition after 48 hrs by SRB assay; format: functional; settings: SK-MEL-5, 48 h
[6] = Cytotoxicity against human HOP92 cells assessed as growth inhibition at 10 uM after 48 hrs by SRB assay relative to control; format: functional; settings: HOP-92, 48 h, read-out: GI
[7] = Cytotoxicity against human 786-0 cells assessed as growth inhibition at 10 uM after 48 hrs by SRB assay relative to control; format: functional; settings: 786-0, 48 h, read-out: GI
[8] = Cytotoxicity against human NCI-H322M cells assessed as growth inhibition at 10 uM after 48 hrs by SRB assay relative to control; format: functional; settings: read-out: GI
[9] = Cytotoxicity against human UO31 cells assessed as growth inhibition at 10 uM after 48 hrs by SRB assay relative to control; format: functional; settings: UO-31, 48 h, read-out: GI
[10] = Cytotoxicity against human SKOV3 cells assessed as growth inhibition after 48 hrs by SRB assay; format: functional; settings: SK-OV-3, 48 h
[11] = Cytotoxicity against human DU145 cells assessed as growth inhibition after 48 hrs by SRB assay; format: functional; settings: DU-145, 48 h
[12] = Cytotoxicity against human SK-MEL-5 cells assessed as growth inhibition at 10 uM after 48 hrs by SRB assay relative to control; format: functional; settings: SK-MEL-5, 48 h, read-out: GI
[13] = Cytotoxicity against human SF268 cells assessed as growth inhibition at 10 uM after 48 hrs by SRB assay relative to control; format: functional; settings: SF-268, 48 h, read-out: GI
[14] = Cytotoxicity against human ACHN cells assessed as growth inhibition after 48 hrs by SRB assay; format: functional
[15] = Inhibition of sheep brain tubulin polymerization by DAPI staining-based fluorimetric method; set-up: species or system Ovis aries
[16] = Cytotoxicity against human NCI-H460 cells assessed as growth inhibition after 48 hrs by SRB assay; format: functional; settings: NCI-H460, 48 h
[17] = Cytotoxicity against human A498 cells assessed as growth inhibition at 10 uM after 48 hrs by SRB assay relative to control; format: functional; settings: A498, 48 h, read-out: GI
[18] = Cytotoxicity against human NCI-H226 cells assessed as growth inhibition at 10 uM after 48 hrs by SRB assay relative to control; format: functional; settings: NCI-H226, 48 h, read-out: GI
[19] = Cytotoxicity against human IGROV1 cells assessed as growth inhibition after 48 hrs by SRB assay; format: functional; settings: IGROV-1, 48 h
[20] = Cytotoxicity against human OVCAR3 cells assessed as growth inhibition after 48 hrs by SRB assay; format: functional; settings: OVCAR-3, 48 h
[21] = Cytotoxicity against human Caki1 cells assessed as growth inhibition at 10 uM after 48 hrs by SRB assay relative to control; format: functional; settings: CAKI-1, 48 h, read-out: GI
[22] = Cytotoxicity against human M14 cells assessed as growth inhibition after 48 hrs by SRB assay; format: functional; settings: M14, 48 h
[23] = Cytotoxicity against human HCT15 cells assessed as growth inhibition after 48 hrs by SRB assay; format: functional; settings: HCT-15, 48 h
[24] = Cytotoxicity against human HT-29 cells assessed as growth inhibition at 10 uM after 48 hrs by SRB assay relative to control; format: functional; settings: HT-29, 48 h, read-out: GI
[25] = Cytotoxicity against human SK-MEL-2 cells assessed as growth inhibition after 48 hrs by SRB assay; format: functional; settings: SK-MEL-2, 48 h
[26] = Cytotoxicity against human BT549 cells assessed as growth inhibition after 48 hrs by SRB assay; format: functional; settings: BT-549, 48 h
[27] = Cytotoxicity against human OVCAR5 cells assessed as growth inhibition at 10 uM after 48 hrs by SRB assay relative to control; format: functional; settings: OVCAR-5, 48 h, read-out: GI
[28] = Cytotoxicity against human HCC2998 cells assessed as growth inhibition after 48 hrs by SRB assay; format: functional; settings: HCC 2998, 48 h
[29] = Cytotoxicity against human Hs 578T cells assessed as growth inhibition after 48 hrs by SRB assay; format: functional
[30] = species: Ovis aries; experiment: Inhibition of sheep brain tubulin polymerization at 100 uM by DAPI staining-based fluorimetric method relative to control
[31] = Cytotoxicity against human SN12C cells assessed as growth inhibition after 48 hrs by SRB assay; format: functional
[32] = Cytotoxicity against human SR cells assessed as growth inhibition after 48 hrs by SRB assay; format: functional
[33] = Cytotoxicity against human KM12 cells assessed as growth inhibition after 48 hrs by SRB assay; format: functional; settings: KM12, 48 h
[34] = Cytotoxicity against human COLO205 cells assessed as growth inhibition after 48 hrs by SRB assay; format: functional; settings: COLO 205, 48 h
[35] = Cytotoxicity against human EKVX cells assessed as growth inhibition at 10 uM after 48 hrs by SRB assay relative to control; format: functional; settings: read-out: GI
[36] = Cytotoxicity against human SF268 cells assessed as growth inhibition after 48 hrs by SRB assay; format: functional; settings: SF-268, 48 h
[37] = Cytotoxicity against human MALME-3M cells assessed as growth inhibition at 10 uM after 48 hrs by SRB assay relative to control; format: functional; settings: read-out: GI
[38] = Cytotoxicity against human NCI-H460 cells assessed as growth inhibition at 10 uM after 48 hrs by SRB assay relative to control; format: functional; settings: NCI-H460, 48 h, read-out: GI
[39] = Cytotoxicity against human LOXIMVI cells assessed as growth inhibition after 48 hrs by SRB assay; format: functional; settings: LOX IMVI
[40] = Cytotoxicity against human SW620 cells assessed as growth inhibition after 48 hrs by SRB assay; format: functional; settings: SW-620, 48 h
[41] = Cytotoxicity against human K562 cells assessed as growth inhibition after 48 hrs by SRB assay; format: functional; settings: K562, 48 h
[42] = Cytotoxicity against human MDA-MB-468 cells assessed as growth inhibition at 10 uM after 48 hrs by SRB assay relative to control; format: functional; settings: MDA-MB-468, 48 h, read-out: GI
[43] = Cytotoxicity against human RXF393 cells assessed as growth inhibition after 48 hrs by SRB assay; format: functional; settings: RXF 393, 48 h

COc1ccc(CN2c3ccccc3Sc3ccccc32)cc1F
GI50 [1]: 300 nM
GI50 [2]: 326 nM
inhibition of growth at 10 µM [3]: 88%
inhibition of growth at 10 µM [4]: 83%
GI50 [5]: 488 nM
inhibition of growth at 10 µM [6]: 50%
inhibition of growth at 10 µM [7]: 78%
inhibition of growth at 10 µM [8]: 57%
inhibition of growth at 10 µM [9]: 54%
GI50 [10]: 475 nM
GI50 [11]: 438 nM
inhibition of growth at 10 µM [12]: 78%
inhibition of growth at 10 µM [13]: 61%
GI50 [14]: 1220 nM
IC50 [15]: 20700 nM
GI50 [16]: 389 nM
inhibition of growth at 10 µM [17]: 100%
inhibition of growth at 10 µM [18]: 44%
GI50 [19]: 1070 nM
GI50 [20]: 264 nM
inhibition of growth at 10 µM [21]: 46%
GI50 [22]: 317 nM
GI50 [23]: 437 nM
inhibition of growth at 10 µM [24]: 100%
GI50 [25]: 405 nM
GI50 [26]: 562 nM
inhibition of growth at 10 µM [27]: 57%
GI50 [28]: 1130 nM
GI50 [29]: 459 nM
inhibition [30]: 63%
GI50 [31]: 575 nM
GI50 [32]: 354 nM
GI50 [33]: 419 nM
GI50 [34]: 299 nM
inhibition of growth at 10 µM [35]: 66%
GI50 [36]: 1430 nM
inhibition of growth at 10 µM [37]: 67%
inhibition of growth at 10 µM [38]: 95%
GI50 [39]: 722 nM
GI50 [40]: 384 nM
GI50 [41]: 369 nM
inhibition of growth at 10 µM [42]: 100%
GI50 [43]: 304 nM
